Like-named read-outs stand apart in the source and are kept apart here.
Tests used:
DNMT1 = DNMT1 (Homo sapiens, UniProt P26358); test: DNMT1 biochemical activity, breaklight assay and/or SPA assay
[1] = test system: erythroid progenitor cells (EPCs); test: Fetal hemoglobin (HbF) ELISA in day 7 erythroid progenitor cells; type: cell-based, human; conditions: Homo sapiens, Erythroid progenitor cell, read-out: EPC ELISA (pEC50 category) (converted);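 for EPC ELISA (pEC50 category): for fetal hemoglobin induction normalized to vehicle-treated cells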
Outline: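 Day 7 EPCs from human bone marrow CD34+ cells were plated at 1,000 cells/well in media with 3 U/mL rhEPO. They were exposed to a 22-point dilution ([…]) for 5 days at 37 °C. Lysate HbF was measured by sandwich ELISA (OD450) and normalized to DMSO control wells.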

[2] = binned activity in either the breaklight or the SPA assay
[3] = binned activity in either the breaklight or the SPA assay, read-out: DNMT1 BioChemical (pIC50 category) (converted)

DNMT1, sequence (P26358 whole entry, looked up): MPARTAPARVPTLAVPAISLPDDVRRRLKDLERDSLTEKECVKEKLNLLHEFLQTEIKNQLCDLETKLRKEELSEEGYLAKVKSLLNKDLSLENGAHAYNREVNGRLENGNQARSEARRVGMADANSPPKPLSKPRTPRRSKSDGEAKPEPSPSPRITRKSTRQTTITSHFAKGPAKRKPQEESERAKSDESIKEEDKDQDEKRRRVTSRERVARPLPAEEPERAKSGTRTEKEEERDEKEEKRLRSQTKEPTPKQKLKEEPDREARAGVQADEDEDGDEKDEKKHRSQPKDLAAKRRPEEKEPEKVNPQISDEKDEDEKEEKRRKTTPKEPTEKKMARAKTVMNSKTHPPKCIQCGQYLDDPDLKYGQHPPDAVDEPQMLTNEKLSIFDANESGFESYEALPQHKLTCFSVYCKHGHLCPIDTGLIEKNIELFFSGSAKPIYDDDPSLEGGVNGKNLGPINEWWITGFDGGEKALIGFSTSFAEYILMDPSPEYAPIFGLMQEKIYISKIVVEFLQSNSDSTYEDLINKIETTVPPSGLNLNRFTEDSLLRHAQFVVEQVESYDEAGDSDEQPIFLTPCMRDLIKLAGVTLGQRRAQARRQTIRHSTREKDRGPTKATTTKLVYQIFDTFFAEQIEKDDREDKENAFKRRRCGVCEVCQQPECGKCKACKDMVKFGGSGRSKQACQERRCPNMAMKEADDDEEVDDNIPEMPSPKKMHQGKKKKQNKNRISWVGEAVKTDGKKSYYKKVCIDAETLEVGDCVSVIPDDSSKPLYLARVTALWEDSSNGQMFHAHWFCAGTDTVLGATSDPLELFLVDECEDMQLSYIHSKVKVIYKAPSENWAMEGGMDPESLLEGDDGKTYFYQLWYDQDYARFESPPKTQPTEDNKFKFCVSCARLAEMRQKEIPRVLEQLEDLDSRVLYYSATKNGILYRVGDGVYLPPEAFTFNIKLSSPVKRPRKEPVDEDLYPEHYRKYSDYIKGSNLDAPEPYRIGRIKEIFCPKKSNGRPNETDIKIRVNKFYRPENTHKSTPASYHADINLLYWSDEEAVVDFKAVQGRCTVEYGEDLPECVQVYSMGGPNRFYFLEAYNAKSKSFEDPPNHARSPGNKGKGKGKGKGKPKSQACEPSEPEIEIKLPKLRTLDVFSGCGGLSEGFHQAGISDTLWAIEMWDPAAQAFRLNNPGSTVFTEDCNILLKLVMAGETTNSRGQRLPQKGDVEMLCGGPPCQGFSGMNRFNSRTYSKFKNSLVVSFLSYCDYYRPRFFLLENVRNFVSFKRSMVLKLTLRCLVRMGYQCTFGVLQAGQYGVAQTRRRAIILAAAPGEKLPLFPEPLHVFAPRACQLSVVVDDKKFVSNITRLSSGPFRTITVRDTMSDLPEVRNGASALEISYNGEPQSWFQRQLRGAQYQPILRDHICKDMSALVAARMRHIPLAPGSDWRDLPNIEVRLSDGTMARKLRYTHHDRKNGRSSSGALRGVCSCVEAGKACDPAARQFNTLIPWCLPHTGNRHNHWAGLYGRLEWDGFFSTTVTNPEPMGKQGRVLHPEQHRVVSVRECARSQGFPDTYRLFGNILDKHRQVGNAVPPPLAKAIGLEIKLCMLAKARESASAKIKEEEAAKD

Row | DNMT1 BioChemical (pIC50 category) (DNMT1; [2]) | EC50 ([1]; HbF ELISA, day 7 EPCs, 5 days) | average pIC50 against DNMT1 (DNMT1; breaklight assay and/or SPA assay, repeated experimental runs) | IC50 (DNMT1; breaklight assay and/or SPA assay, repeated experimental runs, read-out: average pIC50 against DNMT1 (converted)) | IC50 (DNMT1; [3]) | Compound | EC50 [1]
1 | D (Category D: ≥6.5) | < 316 nM | – | – | – | CCc1c(C#N)c(SC(C(N)=O)c2ccc(F)cc2)nc(N2CCC(NCC(C)(C)C)CC2)c1C#N (centres unmarked) [Example 408, 2-((3,5-Dicyano-4-ethyl-6-(4-(neopentylamino)piperidin-1-yl)pyridin-2-yl)thio)-2-(4-fluorophenyl)acetamide] | –
2 | D (Category D: ≥6.5) | < 316 nM | > 6.5 | 158 nM | – | CCc1c(C#N)c(SC(C(N)=O)c2ccccc2)nc(N2CCC(NCC(C)(C)C)C(F)C2)c1C#N (centres unmarked) [Example 409, 2-((3,5-dicyano-4-ethyl-6-(3-fluoro-4-A(neopentylamino)piperidin-1-yl)pyridin-2-yl)thio)-2-phenylacetamide] | –
3 | D (Category D: ≥6.5) | 316 to 1000 nM | – | – | – | CCc1c(C#N)c(SC(C(N)=O)c2ccc(C(F)(F)F)cc2)nc(N2CCC(N)CC2)c1C#N (centres unmarked) [Example 410, 2-((6-(4-aminopiperidin-1-yl)-3,5-dicyano-4-ethylpyridin-2-yl)thio)-2-(4-(trifluoromethyl)phenyl)acetamide] | –
4 | D (Category D: ≥6.5) | < 316 nM | – | – | – | CCc1c(C#N)c(SC(C(N)=O)c2ccccc2)nc(N2CCC(N3CCCC3)CC2)c1C#N (centres unmarked) [Example 411, 2-((3,5-Dicyano-4-ethyl-6-(4-(pyrrolidin-1-yl)piperidin-1-yl)pyridin-2-yl)thio)-2-phenylacetamide] | –
5 | – | 1000 to 31600 nM | – | – | 316 to 1000 nM | CC(=O)NCc1ccc(CSc2nc(N3CCCN(C)CC3)c(C#N)c(-c3ccco3)c2C#N)cc1 [Example 414] | –
6 | – | 1000 to 31600 nM | – | – | 1000 to 31600 nM | CCc1c(C#N)c(SC(C(N)=O)c2ccccc2)nc(N2CC[C@@H](OP(=O)(O)O)C2)c1C#N (stereo partly drawn) [Example 416, (3R)-1-(6-((2-amino-2-oxo-1-phenylethyl)thio)-3,5-dicyano-4-ethylpyridin-2-yl)pyrrolidin-3-yl dihydrogen phosphate] | –
7 | A (Category A: <4.5) | > 31600 nM | – | – | – | CCc1c(C#N)c(S[C@H](C(N)=O)c2ccccc2)nc(N2CC[C@H](OP(=O)(O)O)C2)c1C#N [Example 417, (S)-1-(6-(((S)-2-amino-2-oxo-1-phenylethyl)thio)-3,5-dicyano-4-ethylpyridin-2-yl)pyrrolidin-3-yl dihydroden phosphate] | –
8 | – | > 31600 nM | – | – | 1000 to 31600 nM | CCc1c(C#N)c(S[C@@H](C(N)=O)c2ccccc2)nc(N2CC[C@H](OP(=O)(O)O)C2)c1C#N [Example 418, (S)-1-(6-(((R-2-amino-2-oxo-1-phenylethyl)thio-3,5-dicyano-4-ethylpyridin-2-yl)pyrrolidin-3-yldihydrogen phosphate] | –
9 | – | 1000 to 31600 nM | – | – | 316 to 1000 nM | CCc1c(C#N)c(SC(C(N)=O)c2cccc(P(C)(C)=O)c2)nc(N(C)C)c1C#N (centres unmarked) [Example 419, 2-((3,5-Dicyano-6-(dimethylamino)-4-ethylpyridin-2-yl)thio)-2-(3-(dimethylphosphoryl)phenyl)acetamide] | –
10 | – | 1000 to 31600 nM | – | – | 316 to 1000 nM | CCc1c(C#N)c(SC(C(N)=O)c2cccc(P(C)(C)=O)c2)nc(N2CC[C@H](O)C2)c1C#N (stereo partly drawn) [Example 420, 2-((3,5-Dicyano-4-ethyl-6-((S)-3-hydroxypyrrolidin-1-yl)pyridin-2-yl)thio)-2-(3-(dimethylphosphoryl)phenyl)acetamide] | –
11 | D (Category D: ≥6.5) | < 316 nM | – | – | – | CCc1c(C#N)c(S[C@@H](C(N)=O)c2ccc(OC)cc2)nc(N2CC[C@H](O)C2)c1C#N [Example 422, (R)-2-((3,5-dicyano-4-ethyl-6-((S)-3-hydroxypyrrolidin-1-yl)pyridin-2-yl)thio)-2-(4-methoxyphenyl)acetamide] | –

Row | Compound | DNMT1 BioChemical (pIC50 category) (DNMT1; [2]) | EC50 ([1]; HbF ELISA, day 7 EPCs, 5 days) | average pIC50 against DNMT1 (DNMT1; breaklight assay and/or SPA assay, repeated experimental runs) | IC50 (DNMT1; breaklight assay and/or SPA assay, repeated experimental runs, read-out: average pIC50 against DNMT1 (converted)) | IC50 (DNMT1; [3]) | EC50 [1]
12 | CCc1c(C#N)c(SC(C(N)=O)c2ccccc2)nc(N2CC[C@H](OP(=O)(O)O)C2)c1C#N (stereo partly drawn) [Example 415, (3S)-1-(6-((2-amino-2-oxo-1-phenylethyl)thio-3,5-dicyano-4-ethylpyridin-2-yl) Pyrrolidin-3-yldihydrogen phosphate] | – | – | – | – | 1000 to 31600 nM | 1000 to 31600 nM

Reference: patent US10975056B2 (GlaxoSmithKline Intellectual Property Development Limited, priority 2016, dated 2021)
